Source: patent publication US20190367516A1 (Bayer Pharma Aktiengesellschaft, priority 2015, published 2019)
Read-outs that look alike come from different tables or passages of the source.

Target: T1, human M2 receptor (Homo sapiens, UniProt P08172)
T1 sequence (P08172 1-466): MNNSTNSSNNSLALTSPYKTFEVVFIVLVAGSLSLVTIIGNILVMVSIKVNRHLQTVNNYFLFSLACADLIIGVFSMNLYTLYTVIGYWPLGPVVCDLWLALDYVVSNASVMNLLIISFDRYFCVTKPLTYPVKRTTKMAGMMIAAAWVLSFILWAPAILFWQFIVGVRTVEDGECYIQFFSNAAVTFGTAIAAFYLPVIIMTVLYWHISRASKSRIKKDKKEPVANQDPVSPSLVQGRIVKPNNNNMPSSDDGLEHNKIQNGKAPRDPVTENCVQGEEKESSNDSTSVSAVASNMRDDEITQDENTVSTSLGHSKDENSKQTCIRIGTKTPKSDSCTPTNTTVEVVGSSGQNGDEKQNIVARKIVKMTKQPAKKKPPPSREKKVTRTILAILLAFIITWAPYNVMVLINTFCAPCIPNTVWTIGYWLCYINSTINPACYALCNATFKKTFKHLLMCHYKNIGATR
Conditions: for Emax: read-out: Efficiency, boosting of the acetylcholine effect at EC20 acetylcholine concentration; for Efficiency: boosting of the acetylcholine effect at EC20 acetylcholine concentration

[1] = Receptor activity EC50, M2-GIRK1/4 activation test, acetylcholine at EC20, allosteric potency, in some cases mean values from two or more determinations
[2] = Receptor activity EC50, allosteric potency at EC20 acetylcholine, M2-GIRK1/4 reporter cells, in some cases mean of two or more determinations

SMILES | EC50 [1] [nM] | EC50 [2] [nM] | Emax (M2-GIRK1/4 reporter cells) [%] | Efficiency (M2-GIRK1/4 reporter cells) [%]
CC(C)[C@H](NC(=O)c1cn(-c2ccc(F)cc2F)c2nc(N(C)C)ccc2c1=O)C(F)(F)F [Example 134, 1-(2,4-Difluorophenyl)-7-(dimethylamino)-4-oxo-N-[(2S)-1,1,1-trifluoro-3-methylbutan-2-yl]-1,4-dihydro-1,8-naphthyridine-3-carboxamide] | 32 |  |  | 
C[C@H](NC(=O)c1cn(-c2c(F)cccc2F)c2nc(N3CC4CC4(O)C3)ccc2c1=O)C(F)(F)F (single isomer, unassigned) [Example 313] | 71 |  |  | 
CC(NC(=O)c1cn(-c2c(F)cc(F)cc2F)c2nc(N3C[C@@H](O)[C@H](O)C3)ccc2c1=O)(C1CC1)C(F)(F)F (mixture of isomers) [Example 441, N-[2-Cyclopropyl-1,1,1-trifluoropropan-2-yl]-7-[(3R,4R)-3,4-dihydroxypyrrolidin-1-yl]-4-oxo-1-(2,4,6-trifluorophenyl)-1,4-dihydro-1,8-naphthyridine-3-carboxamide] |  | 15 | 100 | 
CC(C)C(NC(=O)c1cn(-c2c(F)cc(F)cc2F)c2nc(N3CCNC3=O)ccc2c1=O)C(F)(F)F (racemic) [Example 536, 4-Oxo-7-(2-oxoimidazolidin-1-yl)-N-[1,1,1-trifluoro-3-methylbutan-2-yl]-1-(2,4,6-trifluorophenyl)-1,4-dihydro-1,8-naphthyridine-3-carboxamide] |  | 16 | 99.5 | 
CC[C@@H](NC(=O)c1cn(-c2ccc(F)cc2F)c2nc(N3CCN(C)C3=O)ccc2c1=O)C(F)(F)F [Example 321, 1-(2,4-Difluorophenyl)-7-(3-methyl-2-oxoimidazolidin-1-yl)-4-oxo-N-[(2R)-1,1,1-trifluorobutan-2-yl]-1,4-dihydro-1,8-naphthyridine-3-carboxamide] | 43 |  |  | 
O=C(N[C@@H](C1CC1)C(F)(F)F)c1cn(-c2c(F)cc(F)cc2F)c2nc(N3CCC[C@@H]3CO)ccc2c1=O [Example 661, N-[(1 S)-1-Cyclopropyl-2,2,2-trifluoroethyl]-7-[(2R)-2-(hydroxymethyl)pyrrolidin-1-yl]-4-oxo-1-(2,4,6-trifluorophenyl)-1,4-dihydro-1,8-naphthyridine-3-carboxamide] |  | 48 | 95.5 | 
COC(=O)N1CCN(c2ccc3c(=O)c(C(=O)N[C@H](C4CC4)C(F)(F)F)cn(-c4c(F)cc(F)cc4F)c3n2)CC1 [Example 594, Methyl 4-[6-{[(1R)-1-cyclopropyl-2,2,2-trifluoroethyl]carbamoyl}-5-oxo-8-(2,4,6-trifluorophenyl)-5,8-dihydro-1,8-naphthyridin-2-yl]piperazine-1-carboxylate] |  | 18 | 100 | 
CN(C)c1ccc2c(=O)c(C(=O)NC34CC5CC(CC(F)(C5)C3)C4)cn(-c3ccc(F)cc3F)c2n1 [Example 37, 1-(2,4-Difluorophenyl)-7-(dimethylamino)-N-(3-fluorotricyclo[3.3.1.1^3,7]dec-1-yl)-4-oxo-1,4-dihydro-1,8-naphthyridine-3-carboxamide] | 23 |  |  | 
O=C(NC(CC(F)(F)F)C(F)(F)F)c1cn(-c2c(F)cc(F)cc2F)c2nc(N3CCNC3=O)ccc2c1=O (racemic) [Example 587, N-[1,1,1,4,4,4-Hexafluorobutan-2-yl]-4-oxo-7-(2-oxoimidazolidin-1-yl)-1-(2,4,6-trifluorophenyl)-1,4-dihydro-1,8-naphthyridine-3-carboxamide] |  | 14 |  | 93.5
CC[C@H](NC(=O)c1cn(-c2c(F)cccc2F)c2nc(N3C[C@@H](O)[C@H](O)C3)ccc2c1=O)C(F)(F)F [Example 348, 1-(2,6-Difluorophenyl)-7-[(3R,4R)-3,4-dihydroxypyrrolidin-1-yl]-4-oxo-N-[(2S)-1,1,1-trifluorobutan-2-yl]-1,4-dihydro-1,8-naphthyridine-3-carboxamide] | 61 |  |  | 
O=C(N[C@@H](C1CC1)C(F)(F)F)c1cn(-c2c(F)cccc2F)c2nc(N3C[C@@H](O)[C@H](O)C3)ccc2c1=O [Example 345, N-[(1 S)-1-Cyclopropyl-2,2,2-trifluoroethyl]-1-(2,6-difluorophenyl)-7-[(3R,4R)-3,4-dihydroxypyrrolidin-1-yl]-4-oxo-1,4-dihydro-1,8-naphthyridine-3-carboxamide] | 59 |  |  | 
CNc1ccc2c(=O)c(C(=O)NC34CC5CC(C3)C(F)(F)C(C5)C4)cn(-c3ccc(F)cc3F)c2n1 [Example 161] | 137 |  |  | 
C[C@@H](COC(F)(F)F)NC(=O)c1cn(-c2c(F)cc(F)cc2F)c2nc(N3C[C@@H](O)[C@H](O)C3)ccc2c1=O [Example 353, 7-[(3R,4R)-3,4-Dihydroxypyrrolidin-1-yl]-4-oxo-N-[(2S)-1-(trifluoromethoxy)propan-2-yl]-1-(2,4,6-trifluorophenyl)-1,4-dihydro-1,8-naphthyridine-3-carboxamide] | 50 |  |  | 
CCC(NC(=O)c1cn(-c2c(F)cc(F)cc2F)c2nc(N3C[C@@H](O)[C@H](O)C3)ccc2c1=O)C(C)C (mixture of isomers) [Example 487, 7-[(3R,4R)-3,4-Dihydroxypyrrolidin-1-yl]-N-[2-methylpentan-3-yl]-4-oxo-1-(2,4,6-trifluorophenyl)-1,4-dihydro-1,8-naphthyridine-3-carboxamide] |  | 12 | 96.5 | 
CC(C)(NC(=O)c1cn(-c2ccc(F)cc2F)c2nc(N3CC[C@@H](O)C3)ccc2c1=O)c1c(F)cccc1F [Example 21, 1-(2,4-Difluorophenyl)-N-[2-(2,6-difluorophenyl)propan-2-yl]-7-[(3R)-3-hydroxypyrrolidin-1-yl]-4-oxo-1,4-dihydro-1,8-naphthyridine-3-carboxamide] | 145 |  |  | 
NC(=O)N1CCN(c2ccc3c(=O)c(C(=O)Nc4c(Cl)cccc4Cl)cn(-c4c(F)cc(F)cc4F)c3n2)CC1 [Example 636] |  | 60 | 98.1 | 
O=C(NC1(CC(F)(F)F)CC1)c1cn(-c2c(F)cc(F)cc2F)c2nc(N3C[C@@H](O)[C@H](O)C3)ccc2c1=O [Example 635, 7-[(3R,4R)-3,4-Dihydroxypyrrolidin-1-yl]-4-oxo-N-[1-(2,2,2-trifluoroethyl)cyclopropyl]-1-(2,4,6-trifluorophenyl)-1,4-dihydro-1,8-naphthyridine-3-carboxamide] |  | 59 | 100 | 
O=C(NC12CC3CC(CC(C3)C1)C2)c1cn(-c2ccc(F)cc2F)c2nc(N3CCC(F)(CO)CC3)ccc2c1=O [Example 16, 1-(2,4-Difluorophenyl)-7-[4-fluoro-4-(hydroxymethyl)piperidin-1-yl]-4-oxo-N-(tricyclo[3.3.1.1^3,7]dec-1-yl)-1,4-dihydro-1,8-naphthyridine-3-carboxamide] | 90 |  |  | 
CC(C)(CC(F)(F)F)NC(=O)c1cn(-c2c(F)cc(F)cc2Cl)c2nc(N3C[C@@H](O)[C@H](O)C3)ccc2c1=O (single isomer, unassigned) [Example 393] | 125 |  |  | 
CC1(O)CCN(c2ccc3c(=O)c(C(=O)NC(C4CC4)C(F)(F)F)cn(-c4c(F)cccc4F)c3n2)C1 (racemic) [Example 326, N-[1-Cyclopropyl-2,2,2-trifluoroethyl]-1-(2,6-difluorophenyl)-7-[3-hydroxy-3-methylpyrrolidin-1-yl]-4-oxo-1,4-dihydro-1,8-naphthyridine-3-carboxamide] | 47 |  |  | 
C[C@H](NC(=O)c1cn(-c2c(F)cccc2F)c2nc(N3CC4CC4(O)C3)ccc2c1=O)C(F)(F)F (single isomer, unassigned) [Example 312] | 72 |  |  | 
CC[C@@H](NC(=O)c1cn(-c2ccc(F)cc2F)c2nc(N3CCOC(C(F)F)C3)ccc2c1=O)C(F)(F)F (mixture of isomers) [Example 263, 7-[2-(Difluoromethyl)morpholin-4-yl]-1-(2,4-difluorophenyl)-4-oxo-N-[(2R)-1,1,1-trifluorobutan-2-yl]-1,4-dihydro-1,8-naphthyridine-3-carboxamide] | 440 |  |  | 
O=C(N[C@@H](C1CC1)C(F)(F)F)c1cn(-c2c(F)cc(F)cc2F)c2nc(N3CC(O)C4(CC4)C3)ccc2c1=O (single isomer, unassigned) [Example 601] |  | 73 | 100 | 
CN(c1ccc2c(=O)c(C(=O)NC34CC5CC(CC(C5)C3)C4)cn(-c3ccc(F)cc3F)c2n1)S(C)(=O)=O [Example 169] | 101 |  |  | 
CC[C@H](NC(=O)c1cn(-c2c(F)cc(F)cc2Cl)c2nc(N3CCC(C)C3=O)ccc2c1=O)C(F)(F)F (single isomer, unassigned) [Example 423] |  | 3150 |  | 53.5
O=C(NC1(C(F)(F)F)CCC1)c1cn(-c2c(F)cc(F)cc2F)c2nc(N3C[C@@H](O)[C@H](O)C3)ccc2c1=O [Example 625, 7-[(3R,4R)-3,4-Dihydroxypyrrolidin-1-yl]-4-oxo-N-[1-(trifluoromethyl)cyclobutyl]-1-(2,4,6-trifluorophenyl)-1,4-dihydro-1,8-naphthyridine-3-carboxamide] |  | 43 | 100 | 
C[C@H](NC(=O)c1cn(-c2c(F)cc(F)cc2F)c2nc(N3CCNC3=O)ccc2c1=O)C(F)(F)F [Example 341, 4-Oxo-7-(2-oxoimidazolidin-1-yl)-1-(2,4,6-trifluorophenyl)-N-[(2S)-1,1,1-trifluoropropan-2-yl]-1,4-dihydro-1,8-naphthyridine-3-carboxamide] | 56 |  |  | 
